Measurements as given in patent publication US10442807B2, “Aryl substituted bicyclic compounds as herbicides” (FMC Corporation, priority 2015, dated 2019).

Key:
Type in all cases: in vivo
kochia (Kochia scoparia) [1] = assay: Test A postemergence application, visual injury rating; conditions: approx. 10 d, 0 = no effect, 100 = complete control
From the text: (§1) Seeds of plant species selected from barnyardgrass (Echinochloa crus-galli), kochia (Kochia scoparia), ragweed (common ragweed, Ambrosia elation), ryegrass, Italian (Italian ryegrass, Lolium multiflorum), foxtail, giant (giant foxtail, Setaria faberii), and pigweed (Amaranthus retroflexus), were planted into a blend of loam soil and sand and treated preemergence with a directed soil spray using test chemicals formulated in a non-phytotoxic solvent mixture which included a surfactant. At the same time, plants selected from these weed species and also blackgrass (Alopecurus myosuroides), galium (catchweed bedstraw, Galium aparine), wheat (Triticum aestivum), and corn (Zea mays) were planted in pots containing the same blend of loam soil and sand and treated with postemergence applications of test chemicals formulated in the same manner. Plants ranged in height from 2 to 10 cm and were in the one- to two-leaf stage for the postemergence treatment. Treated plants and untreated controls were maintained in a greenhouse for approximately 10 d, after which time all treated plants were compared to untreated controls and visually evaluated for injury. Plant response ratings, summarized in Table A, are based on a 0 to 100 scale where 0 is no effect and 100 is complete control. A dash (-) response means no test result.

[2] = tested on: galium (catchweed bedstraw, Galium aparine); assay: as above; conditions: approx. 10 d, 0 = no effect, 100 = complete control
From the text: as §1

[3] = tested on: ryegrass, Italian (Italian ryegrass, Lolium multiflorum); assay: as above; conditions: approx. 10 d, 0 = no effect, 100 = complete control
From the text: as §1

[4] = tested on: pigweed (Amaranthus retroflexus); assay: as above; conditions: approx. 10 d, 0 = no effect, 100 = complete control
From the text: as §1

[5] = tested on: blackgrass (Alopecurus myosuroides); assay: as above; conditions: approx. 10 d, 0 = no effect, 100 = complete control
From the text: as §1

[6] = tested on: wheat (Triticum aestivum); assay: as above; conditions: approx. 10 d, 0 = no effect, 100 = complete control
From the text: as §1

[7] = tested on: ragweed (common ragweed, Ambrosia elation); assay: as above; conditions: approx. 10 d, 0 = no effect, 100 = complete control
From the text: as §1

corn (Zea mays) = assay: as above; conditions: approx. 10 d, 0 = no effect, 100 = complete control
From the text: as §1

[8] = tested on: barnyardgrass (Echinochloa crus-galli); assay: as above; conditions: approx. 10 d, 0 = no effect, 100 = complete control
From the text: as §1

[9] = tested on: foxtail, giant (giant foxtail, Setaria faberii); assay: as above; conditions: approx. 10 d, 0 = no effect, 100 = complete control
From the text: as §1

rice (Oryza sativa) = assay: Test B flooded paddy test, visual plant response rating; conditions: applied to paddy water at 2-leaf stage, rated after 13 to 15 days, scale 0 to 100, 0 is no effect, 100 is complete control
From the text: (§2) At time of treatment, test pots were flooded to 3 cm above the soil surface, treated by application of test compounds directly to the paddy water, and then maintained at that water depth for the duration of the test. Treated plants and controls were maintained in a greenhouse for 13 to 15 days, after which time all species were compared to controls and visually evaluated. Plant response ratings, summarized in Table B, are based on a scale of 0 to 100 where 0 is no effect and 100 is complete control. A dash (-) response means no test result.

[10] = tested on: sedge, umbrella (small-flower umbrella sedge, Cyperus difformis); assay: as above; conditions: applied to paddy water at 2-leaf stage, rated after 13 to 15 days, scale 0 to 100, 0 is no effect, 100 is complete control
From the text: as §2

[11] = tested on: ducksalad (Heteranthera limosa); assay: as above; conditions: applied to paddy water at 2-leaf stage, rated after 13 to 15 days, scale 0 to 100, 0 is no effect, 100 is complete control
From the text: as §2

[12] = tested on: barnyardgrass (Echinochloa crus-galli); assay: as above; conditions: applied to paddy water at 2-leaf stage, rated after 13 to 15 days, scale 0 to 100, 0 is no effect, 100 is complete control
From the text: as §2

kochia (Kochia scoparia) [13] = assay: Test A preemergence, directed soil spray, visual injury rating; conditions: approx. 10 d, 0 = no effect, 100 = complete control
From the text: as §1

[14] = tested on: ryegrass, Italian (Italian ryegrass, Lolium multiflorum); assay: as above; conditions: approx. 10 d, 0 = no effect, 100 = complete control
From the text: as §1

[15] = tested on: pigweed (Amaranthus retroflexus); assay: as above; conditions: approx. 10 d, 0 = no effect, 100 = complete control
From the text: as §1

[16] = tested on: ragweed (common ragweed, Ambrosia elation); assay: as above; conditions: approx. 10 d, 0 = no effect, 100 = complete control
From the text: as §1

[17] = tested on: barnyardgrass (Echinochloa crus-galli); assay: as above; conditions: approx. 10 d, 0 = no effect, 100 = complete control
From the text: as §1

[18] = tested on: foxtail, giant (giant foxtail, Setaria faberii); assay: as above; conditions: approx. 10 d, 0 = no effect, 100 = complete control
From the text: as §1

Row | Compound | Kochia plant response rating (0 to 100 scale) (kochia (Kochia scoparia) [1]; 125 g ai/ha) | Kochia plant response rating (0 to 100 scale) (kochia (Kochia scoparia) [1]; 500 g ai/ha) | Galium plant response rating (0 to 100 scale) ([2]; 125 g ai/ha) | Galium plant response rating (0 to 100 scale) ([2]; 500 g ai/ha) | Ryegrass, Italian plant response rating (0 to 100 scale) ([3]; 125 g ai/ha) | Ryegrass, Italian plant response rating (0 to 100 scale) ([3]; 500 g ai/ha) | Pigweed plant response rating (0 to 100 scale) ([4]; 125 g ai/ha) | Pigweed plant response rating (0 to 100 scale) ([4]; 500 g ai/ha) | Blackgrass plant response rating (0 to 100 scale) ([5]; 125 g ai/ha) | Blackgrass plant response rating (0 to 100 scale) ([5]; 500 g ai/ha) | Wheat plant response rating (0 to 100 scale) ([6]; 125 g ai/ha) | Wheat plant response rating (0 to 100 scale) ([6]; 500 g ai/ha) | Ragweed plant response rating (0 to 100 scale) ([7]; 125 g ai/ha) | Ragweed plant response rating (0 to 100 scale) ([7]; 500 g ai/ha) | Corn plant response rating (0 to 100 scale) (corn (Zea mays); 125 g ai/ha) | Corn plant response rating (0 to 100 scale) (corn (Zea mays); 500 g ai/ha) | Barnyardgrass plant response rating (0 to 100 scale) ([8]; 125 g ai/ha) | Barnyardgrass plant response rating (0 to 100 scale) ([8]; 500 g ai/ha) | Foxtail, Giant plant response rating (0 to 100 scale) ([9]; 125 g ai/ha) | Foxtail, Giant plant response rating (0 to 100 scale) ([9]; 500 g ai/ha) | further results
1 | O=C(Nc1ccccc1F)C1C2=NCCCN2CC1c1cccc(C(F)(F)F)c1 (centres unmarked) [Compound 1] | 0 | 0 | 0 | 0 | 0 | 0 | 0 | 0 | 0 | 0 | 0 | 0 | 0 | 0 | 0 | 20 | 0 | 60 | 0 | 40 | Plant response rating, Flood, Rice (rice (Oryza sativa); 250 g ai/ha): 0; Plant response rating, Flood, Sedge, Umbrella ([10]; 250 g ai/ha): 50; Plant response rating, Flood, Ducksalad ([11]; 250 g ai/ha): 70; Plant response rating, Flood, Barnyardgrass ([12]; 250 g ai/ha): 0; Kochia plant response rating (0 to 100 scale) (kochia (Kochia scoparia) [13]; 125 g ai/ha): 0; Kochia plant response rating (0 to 100 scale) (kochia (Kochia scoparia) [13]; 500 g ai/ha): 0; Ryegrass, Italian plant response rating (0 to 100 scale) ([14]; 125 g ai/ha): 0; Ryegrass, Italian plant response rating (0 to 100 scale) ([14]; 500 g ai/ha): 0; Pigweed plant response rating (0 to 100 scale) ([15]; 125 g ai/ha): 0; Pigweed plant response rating (0 to 100 scale) ([15]; 500 g ai/ha): 0; Ragweed plant response rating (0 to 100 scale) ([16]; 125 g ai/ha): 0; Ragweed plant response rating (0 to 100 scale) ([16]; 500 g ai/ha): 0; Barnyardgrass plant response rating (0 to 100 scale) ([17]; 125 g ai/ha): 0; Barnyardgrass plant response rating (0 to 100 scale) ([17]; 500 g ai/ha): 70; Foxtail, Giant plant response rating (0 to 100 scale) ([18]; 125 g ai/ha): 0; Foxtail, Giant plant response rating (0 to 100 scale) ([18]; 500 g ai/ha): 60
2 | O=C(Nc1ccccc1F)C1c2nncn2CC1c1cccc(C(F)(F)F)c1 (centres unmarked) [Compound 2, N-(2-fluorophenyl)-6,7-dihydro-6-[3-(trifluoromethyl)phenyl]-5H-pyrrolo[2,1-c]-1,2,4-triazole-7-carboxamide] | 0 | 30 | 50 | 50 | 0 | 50 | 0 | 10 | 40 | 70 | 0 | 50 | 0 | 10 | 20 | 40 | 60 | 80 | 50 | 90 | Plant response rating, Flood, Rice (rice (Oryza sativa); 500 g ai/ha): 0; Plant response rating, Flood, Sedge, Umbrella ([10]; 500 g ai/ha): 0; Plant response rating, Flood, Ducksalad ([11]; 500 g ai/ha): 0; Plant response rating, Flood, Barnyardgrass ([12]; 500 g ai/ha): 0; Kochia plant response rating (0 to 100 scale) (kochia (Kochia scoparia) [13]; 125 g ai/ha): 0; Kochia plant response rating (0 to 100 scale) (kochia (Kochia scoparia) [13]; 500 g ai/ha): 0; Ryegrass, Italian plant response rating (0 to 100 scale) ([14]; 125 g ai/ha): 0; Ryegrass, Italian plant response rating (0 to 100 scale) ([14]; 500 g ai/ha): 0; Pigweed plant response rating (0 to 100 scale) ([15]; 125 g ai/ha): 0; Pigweed plant response rating (0 to 100 scale) ([15]; 500 g ai/ha): 0; Ragweed plant response rating (0 to 100 scale) ([16]; 125 g ai/ha): 0; Ragweed plant response rating (0 to 100 scale) ([16]; 500 g ai/ha): 0; Barnyardgrass plant response rating (0 to 100 scale) ([17]; 125 g ai/ha): 60; Barnyardgrass plant response rating (0 to 100 scale) ([17]; 500 g ai/ha): 90; Foxtail, Giant plant response rating (0 to 100 scale) ([18]; 125 g ai/ha): 90; Foxtail, Giant plant response rating (0 to 100 scale) ([18]; 500 g ai/ha): 90
3 | O=C(Nc1ccccc1F)C1C2=NCC(=O)N2CC1c1cccc(C(F)(F)F)c1 (centres unmarked) [Compound 3, N-(2-fluorophenyl)-2,3,6,7-tetrahydro-3-oxo-6-[3-(trifluoromethyl)phenyl]-5H-pyrrolo[1,2-a]imidazole-7-carboxamide] | 0 | 0 | 0 | 0 | 0 | 10 | 0 | 0 | 0 | 0 | 0 | 0 | 0 | 0 | 0 | 0 | 0 | 30 | 20 | 50 | Kochia plant response rating (0 to 100 scale) (kochia (Kochia scoparia) [13]; 125 g ai/ha): 0; Kochia plant response rating (0 to 100 scale) (kochia (Kochia scoparia) [13]; 500 g ai/ha): 0; Ryegrass, Italian plant response rating (0 to 100 scale) ([14]; 125 g ai/ha): 0; Ryegrass, Italian plant response rating (0 to 100 scale) ([14]; 500 g ai/ha): 0; Pigweed plant response rating (0 to 100 scale) ([15]; 125 g ai/ha): 0; Pigweed plant response rating (0 to 100 scale) ([15]; 500 g ai/ha): 0; Ragweed plant response rating (0 to 100 scale) ([16]; 125 g ai/ha): 0; Ragweed plant response rating (0 to 100 scale) ([16]; 500 g ai/ha): 0; Barnyardgrass plant response rating (0 to 100 scale) ([17]; 125 g ai/ha): 0; Barnyardgrass plant response rating (0 to 100 scale) ([17]; 500 g ai/ha): 60; Foxtail, Giant plant response rating (0 to 100 scale) ([18]; 125 g ai/ha): 0; Foxtail, Giant plant response rating (0 to 100 scale) ([18]; 500 g ai/ha): 80
4 | O=C(Nc1ccccc1F)C1c2nccn2CC1c1cccc(C(F)(F)F)c1 (centres unmarked) [Compound 4] | 0 | 0 | 0 | 0 | 0 | 0 | 0 | 0 | 20 | 40 | 0 | 20 | 0 | 0 | 0 | 0 | 20 | 60 | 20 | 70 | Plant response rating, Flood, Rice (rice (Oryza sativa); 500 g ai/ha): 0; Plant response rating, Flood, Sedge, Umbrella ([10]; 500 g ai/ha): 0; Plant response rating, Flood, Ducksalad ([11]; 500 g ai/ha): 0; Plant response rating, Flood, Barnyardgrass ([12]; 500 g ai/ha): 0; Kochia plant response rating (0 to 100 scale) (kochia (Kochia scoparia) [13]; 125 g ai/ha): 0; Kochia plant response rating (0 to 100 scale) (kochia (Kochia scoparia) [13]; 500 g ai/ha): 0; Ryegrass, Italian plant response rating (0 to 100 scale) ([14]; 125 g ai/ha): 0; Ryegrass, Italian plant response rating (0 to 100 scale) ([14]; 500 g ai/ha): 0; Pigweed plant response rating (0 to 100 scale) ([15]; 125 g ai/ha): 0; Pigweed plant response rating (0 to 100 scale) ([15]; 500 g ai/ha): 0; Ragweed plant response rating (0 to 100 scale) ([16]; 125 g ai/ha): 0; Ragweed plant response rating (0 to 100 scale) ([16]; 500 g ai/ha): 0; Barnyardgrass plant response rating (0 to 100 scale) ([17]; 125 g ai/ha): 20; Barnyardgrass plant response rating (0 to 100 scale) ([17]; 500 g ai/ha): 90; Foxtail, Giant plant response rating (0 to 100 scale) ([18]; 125 g ai/ha): 60; Foxtail, Giant plant response rating (0 to 100 scale) ([18]; 500 g ai/ha): 90
